We go through 18 compounds from patent publication US20020177594A1, “Inhibitors of histone deacetylase” (priority 2001, published 2002).

For `O=C(NCCCCCC(=O)C(F)(F)F)OCC1c2ccccc2-c2ccccc21` [Example 89, 9H-fluoren-9-ylmethyl 7,7,7-trifluoro-6-oxoheptylcarbamate], the melting point (as a rule, the temperature of the solid-liquid transition) lay within 83 to 88 °C.
`O=C(CCCCCCSc1ccccc1)c1ncco1` [Example 102, 1-(1,3-oxazol-2-yl)-7-(phenylsulfanyl)-1-heptanone]: the melting point lay in the range of 39 to 40 °C.
`O=C(CCCCCCS(=O)(=O)c1ccccc1)c1ncco1` [Example 103, 1-(1,3-oxazol-2-yl)-7-(phenylsulfonyl)-1-heptanone] yielded a melting point of 55 to 56 °C.
In the case of `O=C(CCCCCCSc1ccc2ccccc2c1)c1ncco1` [Example 104, 7-(2-naphthylsulfanyl)-1-(1,3-oxazol-2-yl)-1-heptanone], the melting point fell in the range of 65 to 66 °C.
Next, `O=C(CCCCCCS(=O)(=O)c1ccc2ccccc2c1)c1ncco1` [Example 105, 7-(2-naphthylsulfonyl)-1-(1,3-oxazol-2-yl)-1-heptanone]: 75 to 76 °C; `CNC(=O)C(=O)CCCCCCSc1ccc2ccccc2c1` [Example 106, N-methyl-8-(2-naphthylsulfanyl)-2-oxooctanamide]: 94 to 95 °C.
For `CNC(=O)C(=O)CCCCCCS(=O)(=O)c1ccc2ccccc2c1` [Example 107, N-methyl-8-(2-naphthylsulfonyl)-2-oxooctanamide], the melting point lay within 108 to 109 °C.
For the compound `CNC(=O)C(=O)CCCCCCSc1ccc(-c2ccccc2)cc1` [Example 108, 8-((1,1′-biphenyl)-4-ylsulfanyl)-N-methyl-2-oxooctanamide], the melting point fell in the range of 131 to 132 °C.
Then `O=C(NCCCCCCC(=O)c1ncco1)c1cc2ccccc2[nH]1` [Example 110, N-(7-(1,3-oxazol-2-yl)-7-oxoheptyl)-1H-indole-2-carboxamide], with 153 to 156 °C.
In turn, `O=C(NCCCCCC(=O)c1ncco1)c1cc2ccccc2[nH]1` [Example 111, N-(6-(1,3-oxazol-2-yl)-6-oxohexyl)-1H-indole-2-carboxamide] displayed a melting point of 176 to 179 °C.
Next, `CC(=O)C(=O)CCCCCCOc1ccc(-c2ccccc2)cc1` [Example 113, 9-((1,1′-biphenyl)-4-yloxy)-2,3-nonanedione]: 110 to 111 °C; `CNC(=O)C(=O)CCCCCCSc1nc(-c2ccccc2)cs1` [Example 183, N-methyl-2-oxo-8-((4-phenyl-1,3-thiazol-2-yl)thio)octanamide]: 107 to 108 °C.
Then `CNC(=O)C(=O)CCCCCCSc1nc2ccccc2s1` [Example 184, 8-(1,3-benzothiazol-2-ylthio)-N-methyl-2-oxooctanamide], with 83 to 84 °C; and `CNC(=O)C(=O)CCCCCCc1csc(-c2ccccc2)n1` [Example 196, N-methyl-2-oxo-8-(2-phenyl-1,3-thiazol-4-yl)octanamide], with 70 to 72 °C; and `CNC(=O)C(=O)CCCCCO/N=C/c1ccc(-c2ccccc2)cc1` [Example 198, 7-((((1E)-1,1′-biphenyl-4-ylmethylidene)amino)oxy)-N-methyl-2-oxoheptanamide], with 86 to 87 °C.
The compound `CNC(=O)C(=O)CCCCCCc1cnc(-c2ccccc2)o1` [Example 199, N-methyl-2-oxo-8-(2-phenyl-1,3-oxazol-5-yl)octanamide] displayed a melting point of 78 to 80 °C.
Next, `CNC(=O)C(=O)CCCCCCc1cnc(-c2ccc(Br)cc2)o1` [Example 217, 8-(2-(4-bromophenyl)-1,3-oxazol-5-yl)-N-methyl-2-oxooctanamide]: 90 to 92 °C; `CNC(=O)C(=O)CCCCCCc1csc(-c2ccc(Cl)cc2)n1` [Example 218, 8-(2-(4-chlorophenyl)-1,3-thiazol-4-yl)-N-methyl-2-oxooctanamide]: 77 to 81 °C.
